Tests used:
[1] = biological target: endogenous CGRP receptor (Homo sapiens, UniProt O60894+Q16602); assay: CGRP functional antagonism using SK-N-MC-BLA (4C10), β-lactamase transcriptional reporter assay; type: cell-based; settings: SK-N-MC (4C10) cells, inhibition of β-lactamase expression in the presence of 200 pM CGRP
[2] = biological target: T1, CGRP receptor (SK-N-MC membrane) (Homo sapiens, UniProt O60894+Q16602); assay: I125-CGRP binding displacement assay on purified SK-N-MC membrane
T1 construct: Purified SK-N-MC membrane was purchased from Perkin Elmer; purchased Perkin Elmer; host or cells: SK-N-MC membrane
T1 sequence (Q16602 23-461): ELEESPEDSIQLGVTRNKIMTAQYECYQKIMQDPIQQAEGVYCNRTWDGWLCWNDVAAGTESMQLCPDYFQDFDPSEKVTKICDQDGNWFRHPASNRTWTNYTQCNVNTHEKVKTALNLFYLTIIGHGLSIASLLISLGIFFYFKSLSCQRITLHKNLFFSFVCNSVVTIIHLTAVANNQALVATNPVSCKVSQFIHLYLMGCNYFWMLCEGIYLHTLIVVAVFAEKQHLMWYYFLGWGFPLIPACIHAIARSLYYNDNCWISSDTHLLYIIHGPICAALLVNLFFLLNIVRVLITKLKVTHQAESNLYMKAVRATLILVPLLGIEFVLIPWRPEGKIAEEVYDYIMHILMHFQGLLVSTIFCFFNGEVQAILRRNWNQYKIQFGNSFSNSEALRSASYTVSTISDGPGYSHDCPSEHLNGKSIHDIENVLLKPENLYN
T1 sequence (O60894 27-148): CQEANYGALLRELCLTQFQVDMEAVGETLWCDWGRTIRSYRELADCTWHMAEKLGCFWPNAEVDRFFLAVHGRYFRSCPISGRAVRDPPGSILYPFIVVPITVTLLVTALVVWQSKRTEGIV
Experimental: Purified SK-N-MC membrane was purchased from Perkin Elmer. The membrane was thawed quickly and placed on ice. The compounds were diluted with CGRP binding solution (25 mM Tris-HCl, pH7.4, 5 mM MgCl2, 0.1% BSA and 0.05% Tween). The membrane was diluted 1:20 with the binding solution and homogenized with Tissue Matster-50 Homogenizer (Omni International) for 30 sec. The homogenized membrane was added to compounds in the binding solution. […] After 2 hour incubation at room temperature, the reaction was stopped by rapid filtration through 0.5% PEI treated GF/C filter plate (Perkin Elmer) and the filter plate was washed with ice-cold washing solution (50 mM Tris HCl, pH7.4, 5 mM MgCl2 and 0.1% BSA) using cell harvestor (Tomtec). The radioactivity of the filter plates were read on Topcount (Packard). The nonspecific binding was determined in the control reaction where 1 uM unlabelled CGRP was preincubated with the membrane prior to I125-CGRP addition. The total binding was determined in the control reaction of the membrane and I125-CGRP in the absence of compound. The percent displacement of I125-CGRP with compounds was calculated using nonspecific and total binding controls. The curve fitting was carried out using MOD3.

Sequence of endogenous CGRP receptor (Q16602 23-461): as the sequence (Q16602 23-461) above
Sequence of endogenous CGRP receptor (O60894 27-148): as the sequence (O60894 27-148) above

Compound	IC50 [1]	Ki [2]
COc1ccc(C2SC(CC(=O)N3CCC(n4cc(-c5ccccc5)[nH]c4=O)CC3)C(=O)N2CCC(C)C)cc1OC (stereo not drawn) [Compound 19]	> 5000 nM	> 5000 nM
O=C(CC1SC(c2ccccc2)N(CCc2ccncc2)C1=O)N1CCC(n2cc(-c3ccccc3)[nH]c2=O)CC1 (stereo not drawn) [Compound 53]	> 5000 nM	> 5000 nM
COc1cccc(C2SC(CC(=O)N3CCC(n4cc(-c5ccccc5)[nH]c4=O)CC3)C(=O)N2CCC(C)C)c1 (stereo not drawn) [Compound 61]	1000 to 5000 nM	> 5000 nM
CC(C)CCN1C(=O)C(CC(=O)N2CCC(N3Cc4ccccc4NC3=O)CC2)SC1c1ccc(C#N)cc1 (stereo not drawn) [Compound 63]	< 1000 nM	< 1000 nM
COc1ccccc1C1SC(CC(=O)N2CCC(n3cc(-c4ccccc4)[nH]c3=O)CC2)C(=O)N1CCC(C)C (stereo not drawn) [Compound 64]	1000 to 5000 nM	< 1000 nM
CC(C)CCN1C(=O)C(CC(=O)N2CCC(N3Cc4ccccc4NC3=O)CC2)[S+]([O-])C1c1ccc(F)cc1F (stereo not drawn) [Compound 66]	< 1000 nM	< 1000 nM
CC(C)CCN1C(=O)C(CC(=O)N2CCC(N3Cc4ccccc4NC3=O)CC2)SC1c1cccc(F)c1 (stereo not drawn) [Compound 67]	< 1000 nM	< 1000 nM
CC(C)(C)CCN1C(=O)C(CC(=O)N2CCC(N3CCc4ccccc4NC3=O)CC2)SC1c1ccccc1N1CCOCC1 (stereo not drawn) [Compound 70]	< 1000 nM	< 1000 nM
CC(C)CCN1C(=O)C(CC(=O)N2CCC(N3Cc4ccccc4NC3=O)CC2)SC1c1c(Cl)cccc1Cl (stereo not drawn) [Compound 76]	< 1000 nM	< 1000 nM
CC(C)CCN1C(=O)C(CC(=O)N2CCC(N3CCc4ccccc4NC3=O)CC2)SC1c1ccccc1 (stereo not drawn) [Compound 78]	< 1000 nM	< 1000 nM
CC(C)CCN1C(=O)C(CC(=O)N2CCC(N3CCc4ccccc4NC3=O)CC2)SC1c1ccc(F)cc1Cl (stereo not drawn) [Compound 79]	< 1000 nM	< 1000 nM
COc1ccccc1C1SC(CC(=O)N2CCC(N3Cc4ccccc4NC3=O)CC2)C(=O)N1CCC(C)C (stereo not drawn) [Compound 80]	< 1000 nM	< 1000 nM
CC(C)CCN1C(=O)C(CC(=O)N2CCC(N3Cc4ccccc4NC3=O)CC2)SC12CCSCC2 (stereo not drawn) [Compound 84]	< 1000 nM	< 1000 nM
CC(C)CCN1C(=O)C(CC(=O)N2CCC(n3cc(-c4ccccc4)[nH]c3=O)CC2)SC1C1CCCC1 (stereo not drawn) [Compound 87]	1000 to 5000 nM	1000 to 5000 nM
CC(C)(C)CCN1C(=O)C(CC(=O)N2CCC(N3CCc4ccccc4NC3=O)CC2)SC1c1ccccc1-n1cccn1 (stereo not drawn) [Compound 88]	< 1000 nM	< 1000 nM
CC(C)(C)CCN1C(=O)C(CC(=O)N2CCC(N3Cc4ccccc4NC3=O)CC2)SC1c1ccccc1 (stereo not drawn) [Compound 93]	< 1000 nM	< 1000 nM
CC(C)CCN1C(=O)C(CC(=O)N2CCC(n3c(=O)[nH]c4ccccc43)CC2)SC1c1ccccc1 (stereo not drawn) [Compound 104]	> 5000 nM	> 5000 nM
CN1CCN(c2ccccc2[C@@H]2SC(CC(=O)N3CCCCC3)C(=O)N2CCC(C)(C)C)CC1 (stereo partly drawn) [Compound 105]	> 5000 nM	> 5000 nM
CCCCN1C(=O)C(CC(=O)N2CCC(N3Cc4ccccc4NC3=O)CC2)SC1c1ccccc1 (stereo not drawn) [Compound 107]	< 1000 nM	< 1000 nM
O=C(CC1SC(c2ccccc2)N(CC(F)(F)F)C1=O)N1CCC(N2Cc3ccccc3NC2=O)CC1 (stereo not drawn) [Compound 109]	1000 to 5000 nM	< 1000 nM
CC(C)CCN1C(=O)C(CC(=O)N2CCC(n3cc(-c4ccccc4)[nH]c3=O)CC2)SC1c1ccccc1 (stereo not drawn) [Compound 110]	> 5000 nM	> 5000 nM
CC(C)CCN1C(=O)C(CC(=O)N2CCC(n3c(=O)[nH]c4ccccc43)CC2)S[C@H]1c1ccccc1N1CCC(O)CC1 (stereo partly drawn) [Compound 304]	–	< 1000 nM
CN(C)[C@H]1CCN(c2ccccc2C2SC(CC(=O)N3CCC(n4c(=O)[nH]c5ncccc54)CC3)C(=O)N2CCC(C)(C)C)C1 (stereo partly drawn) [Compound 406]	–	< 1000 nM
CC(C)(C)CCN1C(=O)[C@H](CC(=O)N2CCC(N3CCc4ccccc4NC3=O)CC2)SC1c1cccc(F)c1N1CCC(c2ccncc2)CC1 (stereo partly drawn) [Compound 557]	–	< 1000 nM
CC(C)(C)CCN1C(=O)[C@H](CC(=O)N2CCC(N3CCc4ccccc4NC3=O)CC2)SC1c1cccc(F)c1C1CCN(C2CCC2)CC1 (stereo partly drawn) [Compound 558]	–	< 1000 nM

Now from value to compound:

IC50 [1]	Ki [2]	Compound
> 5000 nM	< 1000 nM	CC(C)(C)CCN1C(=O)[C@H](CC(=O)N2CCC(N3CCc4ccccc4NC3=O)CC2)SC1c1ccccc1C1CCN(C(=O)OC(C)(C)C)CC1 (mixture of isomers) [Compound 500]
< 1000 nM	< 1000 nM	CC(C)(C)CCN1C(=O)C(CC(=O)N2CCC(N3CCc4ccccc4NC3=O)CC2)SC1c1cccc(F)c1NCCN1CCOCC1 (stereo in doubt) [Compound 506, 3-(1-(2-((5S)-2-(2-(2-Morpholinoethylamino)-3-fluorophenyl)-3-(3,3-dimethylbutyl)-4-oxothiazolidin-5-yl)acetyl)piperidin-4-yl)-4,5-dihydro-1H-benzo[d][1,3]diazepin-2(3H)-one]
< 1000 nM	< 1000 nM	CC(C)(C)CCN1C(=O)C(CC(=O)N2CCC(n3c(=O)[nH]c4ncccc43)CC2)SC1c1cccc(F)c1NCCN1CCOCC1 (stereo in doubt) [Compound 517, 1-(1-(2-((5S)-2-(2-(2-Morpholinoethylamino)-3-fluorophenyl)-3-(3,3-dimethylbutyl)-4-oxothiazolidin-5-yl)acetyl)piperidin-4-yl)-1H-imidazo[4,5-b]pyridin-2(3H)-one]
< 1000 nM	< 1000 nM	O=C(CC1SC(c2ccccc2)N(C2CCCCC2)C1=O)N1CCC(N2Cc3ccccc3NC2=O)CC1 (stereo not drawn) [Compound 1]
< 1000 nM	< 1000 nM	Cc1cc(C2SC(CC(=O)N3CCC(N4CCc5ccccc5NC4=O)CC3)C(=O)N2CCC(C)(C)C)cc2cn[nH]c12 (stereo not drawn) [Compound 3]
< 1000 nM	< 1000 nM	CC(C)(C)CCN1C(=O)C(CC(=O)N2CCC(N3CCc4ccccc4NC3=O)CC2)SC1c1ccccc1 (stereo not drawn) [Compound 8]
< 1000 nM	< 1000 nM	CC(C)CN1C(=O)C(CC(=O)N2CCC(N3Cc4ccccc4NC3=O)CC2)SC1c1ccccc1 (stereo not drawn) [Compound 9]
< 1000 nM	< 1000 nM	CC(C)CCN1C(=O)C(CC(=O)N2CCC(N3CCc4ccccc4NC3=O)CC2)SC1c1ccccc1N1CCOCC1 (stereo not drawn) [Compound 10]
< 1000 nM	< 1000 nM	CC(C)CCN1C(=O)C(CC(=O)N2CCC(N3Cc4ccccc4NC3=O)CC2)SC1c1ccccc1 (stereo not drawn) [Compound 12]
< 1000 nM	< 1000 nM	CC(C)CCN1C(=O)C(CC(=O)N2CCC(N3Cc4ccccc4NC3=O)CC2)SC12c1ccccc1-c1ccccc12 (stereo not drawn) [Compound 14]
< 1000 nM	< 1000 nM	CC(C)(C)CCN1C(=O)C(CC(=O)N2CCC(N3CCc4ccccc4NC3=O)CC2)SC12CCSCC2 (stereo not drawn) [Compound 15]
< 1000 nM	< 1000 nM	O=C(CC1SC(c2c(F)cccc2F)N(CC2CCCCC2)C1=O)N1CCC(N2CCc3ccccc3NC2=O)CC1 (stereo not drawn) [Compound 16]
< 1000 nM	< 1000 nM	Cc1cc(C2SC(CC(=O)N3CCC(N4CCc5ccccc5NC4=O)CC3)C(=O)N2CC2CCCCC2)cc2cn[nH]c12 (stereo not drawn) [Compound 20]
< 1000 nM	< 1000 nM	CC(C)(C)CCN1C(=O)C(CC(=O)N2CCC(N3CCc4ccccc4NC3=O)CC2)SC1c1ccccc1-n1ccnc1 (stereo not drawn) [Compound 28]
1000 to 5000 nM	< 1000 nM	COCCN1C(=O)C(CC(=O)N2CCC(N3Cc4ccccc4NC3=O)CC2)SC1c1ccccc1 (stereo not drawn) [Compound 30]
< 1000 nM	< 1000 nM	CC(C)CCN1C(=O)C(CC(=O)N2CCC(N3Cc4ccccc4NC3=O)CC2)SC1c1cccc(Cl)c1 (stereo not drawn) [Compound 33]
< 1000 nM	< 1000 nM	CC(C)CCN1C(=O)C(CC(=O)N2CCC(N3CCc4ccccc4NC3=O)CC2)SC1C1CCCCC1 (stereo not drawn) [Compound 37]
< 1000 nM	< 1000 nM	Cc1cccc(C2SC(CC(=O)N3CCC(N4Cc5ccccc5NC4=O)CC3)C(=O)N2CCC(C)C)c1 (stereo not drawn) [Compound 41]
1000 to 5000 nM	< 1000 nM	CC(C)CC1SC(CC(=O)N2CCC(N3Cc4ccccc4NC3=O)CC2)C(=O)N1CCc1ccncc1 (stereo not drawn) [Compound 43]
< 1000 nM	< 1000 nM	CC(C)CCN1C(=O)C(CC(=O)N2CCC(N3CCc4ccccc4NC3=O)CC2)SC1c1ccc(F)cc1F (stereo not drawn) [Compound 44]
< 1000 nM	< 1000 nM	CC(C)(C)CCN1C(=O)C(CC(=O)N2CCC(N3CCc4ccccc4NC3=O)CC2)SC1c1cccc(F)c1F (stereo not drawn) [Compound 48]
< 1000 nM	< 1000 nM	CC(C)(C)CCN1C(=O)C(CC(=O)N2CCC(N3Cc4ccccc4NC3=O)CC2)SC1c1ccccc1N1CCC(O)CC1 (stereo not drawn) [Compound 49]
< 1000 nM	< 1000 nM	CC(C)(C)CCN1C(=O)C(CC(=O)N2CCC(N3CCc4ccccc4NC3=O)CC2)SC1c1ccc(F)cc1F (stereo not drawn) [Compound 54]
< 1000 nM	< 1000 nM	O=C(CC1SC(c2ccccc2)N(CCc2ccccc2)C1=O)N1CCC(N2Cc3ccccc3NC2=O)CC1 (stereo not drawn) [Compound 58]
< 1000 nM	< 1000 nM	CC(C)(C)CCN1C(=O)C(CC(=O)N2CCC(N3Cc4ccccc4NC3=O)CC2)SC1c1ccccc1-n1ccnc1 (stereo not drawn) [Compound 60]

Source: US8163737B2 (Vertex Pharmaceuticals Incorporated, priority 2006, dated 2012)
